Target: PrP^sc in ScN2a-22L cells (Mus musculus, UniProt P04925)
Assay type: cell-based
Settings: ScN2a-22L cells, NIH Image J quantification

Chain of PrP^sc in ScN2a-22L cells (P04925 23-230 limits assumed): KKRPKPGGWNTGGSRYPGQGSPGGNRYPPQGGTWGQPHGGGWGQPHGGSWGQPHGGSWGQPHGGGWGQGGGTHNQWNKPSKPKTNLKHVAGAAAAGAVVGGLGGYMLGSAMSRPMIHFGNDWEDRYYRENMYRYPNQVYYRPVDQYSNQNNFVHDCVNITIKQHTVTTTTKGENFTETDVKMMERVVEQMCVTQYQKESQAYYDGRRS

CN(C)CCCN1c2ccccc2Sc2ccc(Cl)cc21 [chlorpromazine]
inhibition of the accumulation of PrPsc (resistant to proteinase K): 96%

Reference: patent publication US8129402B2 (priority 2002, dated 2012)
